# Data as given in US20020052323A1, “Quinoline-(C=O)-(multiple amino acids)-leaving group compounds for pharmaceutical compositions and reagents” (priority 2000, published 2002).
# Counter-ions that a name gives are not always drawn. Peptide text beside a SMILES is read from it. * marks the point of attachment. Cbz = O=C(OCc1ccccc1)*; CH2F = FC*
# Legend:
# [1] = tested on: WEHI 231 cells; assay: TUNEL analysis of Actinomycin D induced apoptosis, flow cytometry; type: cell-based, murine; parameters: key to rank of result in TUNEL analysis: ***: Best result; **: Second best result; *: Third best result; conditions: for effective concentration in TUNEL test: blind test by TUNEL method, conclusions; for efficacy in TUNEL test, in words: 10 sequences in a blind test
# Procedure: Flow Cytometry measures the percent of the cell population undergoing apoptosis. The effect of the inhibitors is identified as a reduction in the percent of the cell population undergoing apoptosis. Cell Type: WEHI 231 cells, murine immature B cells (suspension) Plate cells at 2×10^5/ml in 10 ml of media (Total 2×10^6 cells) Preincubate caspase inhibitors (Formula I) one hour before inducing apoptosis. […] Actinomycin D (ActD) stock is 1 μg/μl add 10 μl/10 ml)-Treat 4 h Process for Tunel Analysis. (See Table 2 below). […] Cell Processing for Tunel Analysis and Flow Cytometry. Centrifuge cells at 300× g for 5 min and aspirate supernatant. Resuspend cells in 5.0 ml of cold 1× PBS, Spin at 300× g, 5 min. Aspirate supernatant. […] Incubate for 15 min. on ice. […] Aspirate supernatant. […] Aspirate supernatant. […] Aspirate supernatant. Resuspend the cell in 300 μl of cold IX PBS, Transfer to a 1.5 ml tube. […] Store at −20° C. at least 18 hr prior to Tunel Labeling Fixed cells are stable for at least 30 days. Process fixed cells for Tunel using the Apo-BRDU kit from Pharmingen (San Diego, Calif.) following the manufacturer's instructions and analyze by flow cytometry.
# [2] = tested on: WEHI 231 cells; assay: TUNEL analysis, inhibitor alone (toxicity control); type: cell-based, murine; conditions: no ActD
# Procedure: Flow Cytometry measures the percent of the cell population undergoing apoptosis. The effect of the inhibitors is identified as a reduction in the percent of the cell population undergoing apoptosis. Cell Type: WEHI 231 cells, murine immature B cells (suspension) Plate cells at 2×10^5/ml in 10 ml of media (Total 2×10^6 cells) Preincubate caspase inhibitors (Formula I) one hour before inducing apoptosis. […] [table] Process fixed cells for Tunel using the Apo-BRDU kit from Pharmingen (San Diego, Calif.) following the manufacturer's instructions and analyze by flow cytometry.
# [3] = target: T1, caspase 1 (Homo sapiens, UniProt P29466); assay: Caspase inhibition assay, AcYVAD-AFC substrate; type: biochemical; conditions: from figure, antilog of log concentration; read-out: IC50 caspase 1
# T1 sequence (P29466 120-297 limits assumed): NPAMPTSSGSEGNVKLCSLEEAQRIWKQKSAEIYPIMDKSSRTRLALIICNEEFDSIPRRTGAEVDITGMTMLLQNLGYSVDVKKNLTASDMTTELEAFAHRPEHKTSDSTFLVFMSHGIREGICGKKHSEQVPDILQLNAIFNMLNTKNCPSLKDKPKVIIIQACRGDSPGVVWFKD
# T1 sequence (P29466 317-404 limits assumed): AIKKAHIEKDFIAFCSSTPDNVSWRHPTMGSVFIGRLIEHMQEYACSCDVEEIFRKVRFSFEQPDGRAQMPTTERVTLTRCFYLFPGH
# Procedure: The determination of the IC50/μm was performed according to Gary Johnson, 9401 James Avenue, Suite No. 155, Bloomington, Minn. 55431.
# Caspase Inhibition Assay:—Caspases are diluted in caspase buffer, 0.1 M HEPES, 10% sucrose 0.1% CHAPS and 10 mM DTT, pH 7.5. Caspases 1, 3, and 8 are used at a concentration of 144 U/well and caspase 9 is used at 4.8 U/well in a 96 well fluorometric plate.
# Inhibitors are initially dissolved in DMSO at 10 mg/ml and further dilutions can be prepared in caspase buffer. The inhibitors are generally tested at concentrations ranging from 50 uM to 0.005 uM. These are usually prepared as 2 fold or 2.5 fold decreasing dilutions. The enzyme approximately 144 U in 120 ul caspase buffer is added to 380 ul caspase buffer containing the appropriate concentration on the inhibitor and incubated on ice for 15 min. The reactants 200 ul are then added to a black fluorimetric plate and incubated in the fluorometer at 37° C. for 30 min.
# During the incubation period appropriate coumarin substrates are prepared by dilution in DMSO and caspase buffer to provide a 0.417 mM working stock. AcYVAD-AFC is used for caspase 1, AcDEVD-AFC for caspase 3. AcIETD-AFC for caspase 8 and Ac-LEHD-AFC for capsase 9. Twenty five microliters of the stock solution are added to 200 ul of the caspase and inhibitor test solutions to give a final substrate concentration of 0.046 mM.
# The fluorometer is set to 400 nm excitation and 505 nm emission. The enzyme-inhibitor-substrate is allowed to incubate at for an additional twenty min. and the response is read as fluorescence units vs inhibitor concentration. The responses are plotted as percent of the maximum response (response in the absence of inhibitor) for each concentration of the inhibitor. The inhibitory activity for each inhibitor is described as the concentration of inhibitor that produces a 50% inhibition of the maximum response (IC50).
# [4] = 1 μM inhibitor + ActD, WEHI 231, lower = greater inhibitory activity
# [5] = 10 μM inhibitor + ActD, WEHI 231
# [6] = 20 μM inhibitor + ActD, WEHI 231
# [7] = 30 μM inhibitor + ActD, WEHI 231
# [8] = 40 μM inhibitor + ActD, WEHI 231
# [9] = 50 μM inhibitor + ActD, WEHI 231
# [10] = 100 μM inhibitor + ActD, WEHI 231
# [11] = markers in structure designation table
compound,measurement,setting,value
4HQ-Ala-Asp(OMe)—CH2—OPh [Inhibitor H^1],% non-viable cells,[1]; [4],81%
same,% non-viable cells,[1]; [5],92%
same,% non-viable cells,[1]; [6],88%
same,% non-viable cells,[1]; [7],91%
same,% non-viable cells,[1]; [8],85%
same,% non-viable cells,[1]; [9],82%
same,% non-viable cells,[1]; [10],83%
same,effective concentration in TUNEL test,[1],not effective
same,"% non-viable cells, inhibitor alone",[2]; 20 μM Inh alone,3%
same,"% non-viable cells, inhibitor alone",[2]; 100 μM Inh alone,2%
"COC(=O)CC(NC(=O)CCNC(=O)c1ccc2ccccc2n1)C(=O)CF (stereo not shown) [Inhibitor A^1, Q-βAla-Asp(OMe)-FMK]",% non-viable cells,[1]; [4],62%
same,% non-viable cells,[1]; [5],57%
same,% non-viable cells,[1]; [6],42%
same,% non-viable cells,[1]; [7],40%
same,% non-viable cells,[1]; [8],15%
same,% non-viable cells,[1]; [9],32%
same,% non-viable cells,[1]; [10],9%
same,effective concentration in TUNEL test,[1],40 µM
same,"% non-viable cells, inhibitor alone",[2]; 20 μM Inh alone,5%
same,"% non-viable cells, inhibitor alone",[2]; 100 μM Inh alone,5%
"COC(=O)CC(NC(=O)C(C)NC(=O)c1ccc2ccccc2n1)C(=O)CF (stereo not shown) [Inhibitor D^1, Q-Ala-Asp(OMe)-FMK]",% non-viable cells,[1]; [4],88%
same,% non-viable cells,[1]; [5],67%
same,% non-viable cells,[1]; [6],16%
same,% non-viable cells,[1]; [7],2%
same,% non-viable cells,[1]; [8],1%
same,% non-viable cells,[1]; [9],2%
same,% non-viable cells,[1]; [10],1%
same,"efficacy in TUNEL test, in words",[1],most efficacious
same,rank of result in TUNEL analysis,[1]; Table 3 markers,D^1*
same,effective concentration in TUNEL test,[1],20 µM
same,rank of result in TUNEL analysis,[1]; [11],Q-Ala-Asp(OMe)-FMK*
same,"% non-viable cells, inhibitor alone",[2]; 20 μM Inh alone,6%
same,"% non-viable cells, inhibitor alone",[2]; 100 μM Inh alone,8%
"COC(=O)CC(NC(=O)C(C)NC(=O)C(NC(=O)OCc1ccccc1)C(C)C)C(=O)COc1c(F)cccc1F (stereo not drawn) [Inhibitor G^1, 2-Val-Ala-Asp(OMe)—CH2—OPh]",% non-viable cells,[1]; [4],56%
same,% non-viable cells,[1]; [5],62%
same,% non-viable cells,[1]; [6],57%
same,% non-viable cells,[1]; [7],52%
same,% non-viable cells,[1]; [8],62%
same,% non-viable cells,[1]; [9],56%
same,% non-viable cells,[1]; [10],8%
same,effective concentration in TUNEL test,[1],100 µM
same,"% non-viable cells, inhibitor alone",[2]; 20 μM Inh alone,1%
same,"% non-viable cells, inhibitor alone",[2]; 100 μM Inh alone,1%
"COC(=O)CC(NC(=O)C(NC(=O)c1ccc2ccccc2n1)C(C)C)C(=O)COc1c(F)cccc1F (stereo not shown) [Inhibitor I^1, Q-Val-Asp(OMe)—CH2—OPh]",% non-viable cells,[1]; [4],88%
same,% non-viable cells,[1]; [5],2%
same,% non-viable cells,[1]; [6],3%
same,% non-viable cells,[1]; [7],2%
same,% non-viable cells,[1]; [8],3%
same,% non-viable cells,[1]; [9],2%
same,% non-viable cells,[1]; [10],2%
same,"efficacy in TUNEL test, in words",[1],most efficacious
same,rank of result in TUNEL analysis,[1]; Table 3 markers,I^1***
same,effective concentration in TUNEL test,[1],10 µM
same,rank of result in TUNEL analysis,[1]; [11],Q-Val-Asp(OMe)—CH2—OPh***
same,"% non-viable cells, inhibitor alone",[2]; 20 μM Inh alone,2%
same,"% non-viable cells, inhibitor alone",[2]; 100 μM Inh alone,53%
COC(=O)CC(NC(=O)[C@@H](NC(=O)[C@@H](N)Cc1c[nH]c2ccccc12)C(C)C)C(=O)COc1ccccc1 (stereo partly shown) [TFA Trp-V-D(OMe)—CH2—O—Ph TFA],IC50,[3],~624 nM
"COC(=O)CC(NC(=O)C(C)NC(=O)C(NC(=O)OCc1ccccc1)C(C)C)C(=O)CF (stereo not drawn) [Z-VAD-FMK, Benzyloxycarbonyl-Val-Ala-Asp (OMe) fluoromethylketone, reference compound] (Cbz-Val-Ala-Asp(OMe)-CH2F; configuration not given here)",% non-viable cells,[1]; [4],33%
same,% non-viable cells,[1]; [5],64%
same,% non-viable cells,[1]; [6],17%
same,% non-viable cells,[1]; [7],19%
same,% non-viable cells,[1]; [8],12%
same,% non-viable cells,[1]; [9],8%
same,% non-viable cells,[1]; [10],6%
same,effective concentration in TUNEL test,[1],20 µM
same,"% non-viable cells, inhibitor alone",[2]; 20 μM Inh alone,3%
same,"% non-viable cells, inhibitor alone",[2]; 100 μM Inh alone,7%
"COC(=O)C[C@H](NC(=O)[C@@H](NC(=O)NCCc1c[nH]c2ccc(OC)cc12)C(C)C)C(=O)COc1c(F)cccc1F [melatonin-V-D(OMe)—CH2—O—Ph, 5-methoxytrytamine-carbonyl-Val Asp(OMe)-α-(2-oxy-2,6-Difluorophenyl) Methyl Ketone]",IC50,[3],~139 nM
CC(C)[C@H](NC(=O)c1ccc2ccccc2n1)C(=O)N[C@@H](CC(=O)O)C(=O)COc1ccccc1 [quinoline-(2-carbonyl)-V-D-CH2—OPh],IC50,[3],~50 nM
Bzl-melatonin-V-D(OMe)—CH2—O—Ph,IC50,[3],~170 nM
HQ-Ala-Asp(OMe)—CH2—OPh [Inhibitor E^1],% non-viable cells,[1]; [4],29%
same,% non-viable cells,[1]; [5],38%
same,% non-viable cells,[1]; [6],13%
same,% non-viable cells,[1]; [7],25%
same,% non-viable cells,[1]; [8],7%
same,% non-viable cells,[1]; [9],12%
same,% non-viable cells,[1]; [10],10%
same,effective concentration in TUNEL test,[1],20 µM
same,"% non-viable cells, inhibitor alone",[2]; 20 μM Inh alone,1%
same,"% non-viable cells, inhibitor alone",[2]; 100 μM Inh alone,1%
MQ-Ala-Asp(OMe)—CH2—OPh [Inhibitor F^1],% non-viable cells,[1]; [4],32%
same,% non-viable cells,[1]; [5],35%
same,% non-viable cells,[1]; [6],47%
same,% non-viable cells,[1]; [7],61%
same,% non-viable cells,[1]; [8],36%
same,% non-viable cells,[1]; [9],20%
same,% non-viable cells,[1]; [10],21%
same,effective concentration in TUNEL test,[1],not effective
same,"% non-viable cells, inhibitor alone",[2]; 20 μM Inh alone,5%
same,"% non-viable cells, inhibitor alone",[2]; 100 μM Inh alone,5%
Q-βAla-Asp(OMe)—CH2—OPh [Inhibitor C^1],% non-viable cells,[1]; [4],88%
same,% non-viable cells,[1]; [5],87%
same,% non-viable cells,[1]; [6],72%
same,% non-viable cells,[1]; [7],71%
same,% non-viable cells,[1]; [8],78%
same,% non-viable cells,[1]; [9],68%
same,% non-viable cells,[1]; [10],3%
same,effective concentration in TUNEL test,[1],100 µM
same,"% non-viable cells, inhibitor alone",[2]; 20 μM Inh alone,3%
same,"% non-viable cells, inhibitor alone",[2]; 100 μM Inh alone,4%
